Experiment [1] deals with Type 3 Phosphodiesterase. Briefly: Phosphodiesterase (PDE) Inhibition, Type 3 Phosphodiesterase. It counts as biochemical, bovine (coronary arteries). The following applies: Type 3 PDE, at 10^-5 M, substrate 3H-cAMP 1.0 μM. The source says: (§1) The method of Thompson, et al (Thompson, W. J., Terasaki, W. L., Epstein, P. M., Strada, S. J., Adv. Cyclic Nucleotide Res., 10:69-92, 1979), with minor modifications, was used to isolate phosphodiesterases from vascular smooth muscle. Bovine coronary arteries (right, anterior descending, and left circumflex arteries) from hearts obtained from a local slaughterhouse were used for these studies. Arteries from two hearts were used for each isolation. Hearts were kept on ice and the arteries were dissected within two hours after the animals were sacrificed. After removing all fat and connective tissue, the arteries were everted, cut into cubes with a single edge razor blade and homogenized with a Brinkman Polytron three times at a rheostat setting of 10.0 in four volumes of the PDE isolation buffer (10 mM Tris-HCl/pH 7.5, 2 mM MgCl2, and 1 mM dithiothreitol). The resulting homogenate was sonicated (30 sec/ml homogenate) and then centrifuged at 30,000 xg for 20 minutes. This and all subsequent procedures were performed at 4° C. The resulting supernatant was filtered through four layers of gauze, and applied to a DEAE-cellulose column (30×1.5 cm), prepared as described by Cheung (Cheung, W. Y., Biochim. Biophys. Acta, 191:303-315, 1969), and equilibrated with freshly prepared 70 mM sodium acetate/5 mM 2-mercaptoethanol (pH 6.5). The column was then washed with 2-3 bed volumes of sodium acetate/2-mercaptoethanol, after which the phosphodiesterases were eluted from the column using a continuous 70-1,000 mM sodium acetate gradient (pH 6.5, containing 5 mM 2-mercaptoethanol; total volume 400 ml). The flow rate was approximately equal to 25 ml/hr. Eight ml fractions were collected and assayed for cyclic AMP- and cyclic GMP-phosphodiesterase activity in the presence and absence of 0.1 units of calmodulin and 10 mM CaCl2. Appropriate fractions were pooled and dialyzed against 70 mM sodium acetate/5 mM 2-mercaptoethanol for 20 hours.
(§2) Following complete separation, the combined phosphodiesterase fractions were concentrated to 14% of the original volume using an Amicon ultrafiltration cell fitted with a UM-10 membrane, according to the method of Wells, et al (Wells, J. N., Baird, C. E., Wu, Y. J., Hardman, J. G., Biochim. Biophys. Acta, 384:430-442, 1975). Following concentration, the protein was then diluted to 65% with ethylene glycol monoethyl ether, and stored at -20° C.
(§3) Phosphodiesterase activity was measured as described previously (Weishaar, P. E., Quade, M., Boyd, D., Schenden, J., Mark, S. S., Kaplan, H. R., Drug Devel. Res., 3:517-534, 1983), in a reaction medium containing 40 mM Tris-HCl (pH 8.0), 5 mM MgCl and 4 mM 2-mercaptoethanol. Unless otherwise noted, the concentration of substrate (^3 H-cyclic AMP or ^3 H-cyclic GMP) was 1.0 μM. All agents examined were dissolved in dimethyl sulfoxide (DMSO). Final concentration of the reaction medium was either 2.5% (cardiac and platelet studies) or 1.25% (smooth muscle studies). This concentration of DMSO produced an approximately 10% inhibition of enzyme activity.

The subject of experiment [2] is Type 1 Phosphodiesterase. Briefly: Phosphodiesterase (PDE) Inhibition, Type 1 Phosphodiesterase. It counts as biochemical, bovine (coronary arteries). The following applies: Type 1 PDE, at 10^-5 M; for % Inhibition of hydrolysis of 3H-cAMP: substrate 3H-cAMP 1.0 μM; for % Inhibition of hydrolysis of 3H-cGMP: substrate 3H-cGMP 1.0 μM.
Excerpt: as §1, §2, §3

For experiment [3], the target named is T1, adenosine A1 receptor (Rattus norvegicus, UniProt P25099).
T1 construct: Whole brain minus cerebellum and brainstem from male Long Evans rats; from tissue; host or cells: whole brain minus cerebellum and brainstem, male Long Evans rats (membranes)
T1 sequence (P25099 1-326): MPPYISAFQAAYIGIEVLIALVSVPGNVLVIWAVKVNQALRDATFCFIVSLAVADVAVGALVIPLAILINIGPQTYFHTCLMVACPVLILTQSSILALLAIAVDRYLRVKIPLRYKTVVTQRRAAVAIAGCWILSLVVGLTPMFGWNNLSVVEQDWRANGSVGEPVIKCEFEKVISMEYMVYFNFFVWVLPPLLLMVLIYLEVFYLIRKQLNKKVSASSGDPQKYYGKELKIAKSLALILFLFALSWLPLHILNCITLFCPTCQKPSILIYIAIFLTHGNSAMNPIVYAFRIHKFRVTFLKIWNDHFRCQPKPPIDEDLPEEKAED
Briefly: Adenosine Receptor Binding - A1 Receptor Affinity (RBA1), [3H]-N6-cyclohexyladenosine displacement. The following applies: [3H]-CHA 1.0 nM, rat brain membranes, 25° C., one hour; read-out: RBA-1, IC50 for adenosine A1 receptor affinity. The procedure:
Whole brain minus cerebellum and brainstem from male Long Evans rats (150-200 g) was homogenized in 30 volumes of ice-cold 0.05M Tris-HCl buffer pH 7.7 using a Brinkman Polytron PT-10, (setting number 6 for 20 seconds) and centrifuged for ten minutes at 20,000×g (Sorvall RC-2), 4° C. The supernatant was discarded, and the pellet was resuspended and centrifuged as before. […] The homogenate was again centrifuged, and the final pellet was resuspended in ice-cold 0.05 M Tris-HCl buffer pH 7.7 to a concentration of 20 mg/ml original wet tissue weight and used immediately. […] Incubation volume was 2 ml. […] The filters were rinsed three times with 5 ml of ice cold 0.05 M Tris-HCl buffer pH 7.7. The radio-labeled ligand retained on the filter was measured by liquid scintillation spectrophotometry after shaking the filters for one hour or longer on a mechanical shaker in 10 ml of Beckman Ready-Solv HP scintillation cocktail. […] The Hill coefficient was calculated by linear regression of the line obtained by plotting the log of the bound radioligand vs the log of the [formula] The maximal number of binding sites (Bmax) was calculated from the Scatchard plot.

Experiment [4] has as its system pentobarbital-anesthetized dog. Briefly: In Vivo Myocardial Inotropic Activity in Anesthetized Dog (CVAD). Further details: species or system dog (adult mongrel). The following applies: for change in vivo at 0.1 mg/kg / change in vivo at 0.31 mg/kg / change in vivo at 1 mg/kg / change in vivo at 3.1 mg/kg / change in vivo at 0.01 mg/kg / change in vivo at 0.03 mg/kg / change in vivo at 0.3 mg/kg: Canis lupus familiaris, iv; for change in vivo at 3.1 mg/kg: 3.10 mg/kg IV; for change in vivo at 0.3 mg/kg: Test 1, 0.30 mg/kg IV. The procedure: This test procedure is described in the following paragraphs.
This screen consists of determining the effects of increasing intravenous doses of compound on mycardial contractility (dP/dt max of left ventricular blood pressure), heart rate, and aortic blood pressure of the pentobarbital-anesthetized dog.
Adult mongrel dogs of either sex are anesthetized with pentobarbital, 35 mg/kg, IV, and are subsequently maintained under anesthesia with a continuous infusion of pentobarbital, 3.5 mg/kg/hour. The trachea is intubated but the animals are permitted to breathe spontaneously. A cannula is inserted into the femoral vein for administrating test agents. A Millar catheter tip pressure transducer or a fluid filled catheter is inserted into the ascending aorta via the femoral artery for measuring aortic blood pressure. A Millar catheter tip pressure transducer is passed into the left ventricle via the left carotid artery for measuring left ventricular blood pressure. Needle electrodes are placed subcutaneously for recording a lead II electrocardiogram (ECG).
Left ventricular and aortic blood pressures are recorded on a strip chart recorder. Heart rate, using a biotachometer triggered from the R wave of the ECG, and the first derivative of left ventricular blood pressure (dP/dt), obtained with a differentiator amplifier coupled to the corresponding pressure amplifier, are also recorded. A period of at least 30 minutes is utilized to obtain control data prior to administration of test compound.
Ethanol or dimethylacetamide can be used as solvents if adequate dilutions can be made. Appropriate vehicle controls are administered when needed.
Each dose of the test compound is administered in a volume of […] over a period of one minute.

Where [5] appears, read: 0.31 mg/kg IV, read-out: Percent Change Heart Rate.
[6] abbreviates: 0.31 mg/kg IV, read-out: Percent Change Myocardial Contractility.
The mark [7] stands for this setting: 1.00 mg/kg IV, read-out: Percent Change Heart Rate.
[8] abbreviates: 1.00 mg/kg IV, read-out: Percent Change Myocardial Contractility.
[9] abbreviates: read-out: Percent Change Heart Rate.
[10] abbreviates: read-out: Percent Change Myocardial Contractility.

Read-outs that look alike come from different tables or passages of the source.

Regarding `Cc1nn(C)c2c(=O)[nH]c(-c3ccc(Cl)cc3)nc12` [Example 7, 1,3-Dimethyl-5-(4-chlorophenyl)pyrazolo[4,3-d]pyrimidne-7-one], the “% Inhibition of hydrolysis of 3H-cAMP” value in experiment [1] is recorded as 13%. Further, in experiment [2], the “% Inhibition of hydrolysis of 3H-cAMP” value is 7% and the “% Inhibition of hydrolysis of 3H-cGMP” value came to 11%. Also, the IC50 in experiment [3] amounted to 0.408 µM.

Take `Cc1nn(C)c2c(=O)[nH]c(-c3ccc(C(F)(F)F)cc3)nc12` [Example 10]: in experiment [1], the “% Inhibition of hydrolysis of 3H-cAMP” value is given as -9%. Moreover, in experiment [2], the “% Inhibition of hydrolysis of 3H-cAMP” value is on record as 12% and the “% Inhibition of hydrolysis of 3H-cGMP” value was determined as 1%. In experiment [3], the concentration for half-maximal inhibition (IC50) came to 0.463 µM.

Consider `COc1ccccc1-c1nc2c(C)nn(C)c2c(=O)[nH]1` [Example 14], for which the change in vivo at 0.1 mg/kg came to 2% in experiment [4] (0.10 mg/kg IV, read-out: Percent Change Heart Rate) and 2% in experiment [4] (0.10 mg/kg IV, read-out: Percent Change Myocardial Contractility). The change in vivo at 0.31 mg/kg in experiment [4] (setting [5]) and in experiment [4] (setting [6]) was 4% throughout. For the same molecule, the figures for the change in vivo at 1 mg/kg in experiment [4] (setting [7]) and in experiment [4] (setting [8]) were 14% and 10%, respectively. Also, the change in vivo at 3.1 mg/kg in experiment [4] (setting [9]) was 27%; in experiment [4] (setting [10]), 34%. The IC50 in experiment [3] is 10 µM.

Turning to `Cc1nn(C)c2c(O)nc(-c3ccc(S(=O)(=O)O)cc3)nc12` [Example 20, 1,3-Dimethyl-5-(4-sulfoacid phenyl)pyrazolo[4,3-d]pyrimidine-7-one], the IC50 in experiment [3] came to 13 µM.

With `Cc1nn(C)c2c(=O)[nH]c(-c3ccc(S(=O)(=O)NCCN(C)C)cc3)nc12` [Example 21], the IC50 in experiment [3] stood at 0.684 µM.

Consider `CCn1nc(C)c2nc(Cc3ccccc3)[nH]c(=O)c21` [Example 22], for which the change in vivo at 0.01 mg/kg in experiment [4] (Test 1, 0.01 mg/kg IV, read-out: Percent Change Heart Rate) is -1%; in experiment [4] (Test 1, 0.01 mg/kg IV, read-out: Percent Change Myocardial Contractility), 11%; in experiment [4] (Test 2, 0.01 mg/kg IV, read-out: Percent Change Heart Rate), -14%; in experiment [4] (Test 2, 0.01 mg/kg IV, read-out: Percent Change Myocardial Contractility), -12%. The change in vivo at 0.03 mg/kg in experiment [4] (Test 1, 0.03 mg/kg IV, read-out: Percent Change Heart Rate) is -1%; in experiment [4] (Test 1, 0.03 mg/kg IV, read-out: Percent Change Myocardial Contractility), 12%; in experiment [4] (Test 2, 0.03 mg/kg IV, read-out: Percent Change Heart Rate), -17%; in experiment [4] (Test 2, 0.03 mg/kg IV, read-out: Percent Change Myocardial Contractility), -13%. In addition, the change in vivo at 0.1 mg/kg in experiment [4] (Test 1, 0.10 mg/kg IV, read-out: Percent Change Heart Rate) is -4%; in experiment [4] (Test 1, 0.10 mg/kg IV, read-out: Percent Change Myocardial Contractility), 17%; in experiment [4] (Test 2, 0.10 mg/kg IV, read-out: Percent Change Heart Rate), -21%; in experiment [4] (Test 2, 0.10 mg/kg IV, read-out: Percent Change Myocardial Contractility) it was -15%. Also, the change in vivo at 0.3 mg/kg was -10% in experiment [4] (setting [9]) and 6% in experiment [4] (setting [10]). Moreover, the change in vivo at 1 mg/kg is -12% in experiment [4] (Test 1, 1.00 mg/kg IV, read-out: Percent Change Heart Rate); 14% in experiment [4] (Test 1, 1.00 mg/kg IV, read-out: Percent Change Myocardial Contractility); -11% in experiment [4] (Test 2, 1.00 mg/kg IV, read-out: Percent Change Heart Rate); 2% in experiment [4] (Test 2, 1.00 mg/kg IV, read-out: Percent Change Myocardial Contractility). Also, the change in vivo at 0.31 mg/kg in experiment [4] (Test 2, 0.31 mg/kg IV, read-out: Percent Change Heart Rate) was -22%; in experiment [4] (Test 2, 0.31 mg/kg IV, read-out: Percent Change Myocardial Contractility), -14%. Besides, the “Percent Change Blood Pressure” value in experiment [4] (Test 1, 0.01 mg/kg IV) was 1/0. Also, in experiment [3], the IC50 turned out to be 8.2 µM.

Take `COc1cc(OC)cc(-c2nc3c(C)nn(C)c3c(=O)[nH]2)c1` [Example 23, 1,3-Dimethyl-5-(3,5-dimethoxyphenyl)pyrazolo[4,3-d]-pyrimidine-7-one]: the “Percent Change Blood Pressure” value in experiment [4] (0.01 mg/kg IV) was 2/2; in experiment [4] (0.31 mg/kg IV), 3/4. Besides, the change in vivo at 0.01 mg/kg in experiment [4] (0.01 mg/kg IV, read-out: Percent Change Heart Rate) worked out at 1%; in experiment [4] (0.01 mg/kg IV, read-out: Percent Change Myocardial Contractility), 5%. In addition, the change in vivo at 0.31 mg/kg came to 3% in experiment [4] (setting [5]) and 15% in experiment [4] (setting [6]). Also, the figures for the change in vivo at 1 mg/kg in experiment [4] (setting [7]) and in experiment [4] (setting [8]) were 6% and 22%, respectively.
